Measurements published in patent US20210278408A1, “METHODS OF TREATMENT OF CANCER WITH SUBSTITUTED PYRROLE AND PYRAZOLE COMPOUNDS AND DIAGNOSIS OF CANCERS SUSCEPTIBLE TO TREATMENT WITH SUBSTITUTED PYRROLE AND PYRAZOLE COMPOUNDS” (Bantam Pharmaceutical, LLC, priority 2018, published 2021).
Like-named read-outs stand apart in the source and are kept apart here.

Test system: 407 cancer cell lines
Test: Cell viability of cancer cell lines (IC50), CellTiter-Glo Viability Assay, 96 h
Type: cell-based
Conditions: for IC50: read-out: Absolute IC50
Description: Viability was determined by using the 50% inhibitory concentration (IC50) as determined with the CellTiter-Glo® Viability Assay (Promega).
Experiments were initiated by first thawing and equilibrating the CellTiter-Glo® Buffer to room temperature. The lyophilized CellTiter-Glo® Substrate was also equilibrated to room temperature. The lyophilized substrate was reconstituted with the CellTiter-Glo® buffer to form the CellTiter-Glo® Reagent.
Cells were harvested during the logarithmic growth period, counted, and the cell concentration adjusted to 4.44×10^4 cells/mL using culture medium.
Cells were allowed to grow overnight and the following day, the TO reading was obtained by adding 10 μL culture medium to each well of Plate A. The plate was allowed to equilibrate at room temperature for thirty minutes, after which 50 μL CellTiter-Glo® reagent was added to each well. The contents were mixed for 5 min on an orbital shaker to induce cell lysis. Plates were incubated for 20 minutes to stabilize the luminescent signal and the TO luminescence recorded.
Test plate B was incubated for 96 h in the humidified incubator at 37° C. with 5% CO2.
Following the incubation, the plate was equilibrated at room temperature for thirty minutes. CellTiter-Glo® (50 μL) was added to each well of the plate and contents mixed for five minutes on an orbital shaker to induce cell lysis. The luminescent signal was allowed to stabilize at room temperature for 20 minutes and the luminescence recorded.
IC50 (EC50) was calculated using a dose-response curve, fitted using a nonlinear regression model with a sigmoidal dose response. Survival rate was calculated using the formula:
The Surviving rate (%)=(LumTest article−LumMedium control)/(LumNon-treated−LumMedium control)×100%.
Absolute IC50 (EC50) was calculated according to the dose-response curve generated by the statistical software (GraphPad Prism 5.0).

N.N.[Cl][Pt][Cl] [Cisplatin, reference compound]
IC50 (MV-4-11 cells, 96 h): 0.41 µM
IC50 (MX-1): 2.39 µM
IC50 (Molt-4): 0.7 µM
IC50 (MsTo 211H): 2.5 µM
IC50 (NAMALWA CSN/70): 0.28 µM
IC50 (NAMALWA cells, 96 h): 0.63 µM
IC50 (NB4 cells, 96 h): 0.84 µM
IC50 (NCI-H23 cells, 96 h): 0.75 µM
IC50 (NCI-H69 cells, 96 h): 3.28 µM
IC50 (NCI-H82, 96 h): 1.83 µM
IC50 (NCI-H146 cells, 96 h): 1.81 µM
IC50 (NCI-H187): 0.68 µM
IC50 (NCI-H209 cells, 96 h): 0.44 µM
IC50 (NCI-H226): 3.56 µM
IC50 (NCI-H292 cells, 96 h): 2.25 µM
IC50 (NCI-H322 cells, 96 h): 10.8 µM
IC50 (NCI-H358 cells, 96 h): 6.07 µM
% inhibition at top conc. (NCI-H441 cells, 96 h): 74.99%
IC50 (NCI-H441 cells, 96 h): 6.18 µM
IC50 (NCI-H446 cells, 96 h): 1.93 µM
IC50 (NCI-H460 cells, 96 h): 2.77 µM
IC50 (NCI-H508 cells, 96 h): 8.02 µM
IC50 (NCI-H520 cells, 96 h): 10.7 µM
IC50 (NCI-H522 cells, 96 h): 4.49 µM
IC50 (NCI-H526 cells, 96 h): 0.33 µM
IC50 (NCI-H596): 2.06 µM
IC50 (NCI-H661 cells, 96 h): 6.42 µM
IC50 (NCI-H716 cells, 96 h): 8.99 µM
IC50 (NCI-H727 cells, 96 h): 13.2 µM
IC50 (NCI-H747 cells, 96 h): 7.3 µM
IC50 (NCI-H820 cells, 96 h): 0.79 µM
IC50 (NCI-H929): 3.07 µM
IC50 (NCI-H1048 cells, 96 h): 1.37 µM
IC50 (NCI-H1155 cells, 96 h): 2.15 µM
IC50 (NCI-H1299 cells, 96 h): 2.67 µM
IC50 (NCI-H1373): 1.45 µM
IC50 (NCI-H1395): 2.91 µM
IC50 (NCI-H1435): 14.8 µM
IC50 (NCI-H1437 cells, 96 h): 5.67 µM
IC50 (NCI-H1563): 16.9 µM
IC50 (NCI-H1568 cells, 96 h): 0.95 µM
IC50 (NCI-H1573 cells, 96 h): 10.6 µM
IC50 (NCI-H1581 cells, 96 h): 2.98 µM
IC50 (NCI-H1648 cells, 96 h): 8.25 µM
IC50 (NCI-H1650): 5.12 µM
IC50 (NCI-H1651 cells, 96 h): 0.62 µM
IC50 (NCI-H1666 cells, 96 h): 6.16 µM
IC50 (NCI-H1688): 13.8 µM
IC50 (NCI-H1703 cells, 96 h): 6.11 µM
IC50 (NCI-H1781 cells, 96 h): 0.64 µM
IC50 (NCI-H1838 cells, 96 h): 6.41 µM
IC50 (NCI-H1915 cells, 96 h): 5.23 µM
IC50 (NCI-H1975 cells, 96 h): 3.24 µM
IC50 (NCI-H1993 cells, 96 h): 10.4 µM
IC50 (NCI-H2009): 16.7 µM
IC50 (NCI-H2052): 5.77 µM
IC50 (NCI-H2087 cells, 96 h): 1.01 µM
IC50 (NCI-H2122 cells, 96 h): 8.93 µM
IC50 (NCI-H2170 cells, 96 h): 1.02 µM
IC50 (NCI-H2228 cells, 96 h): 4.6 µM
% inhibition at top conc. (NCI-H2452): 80.91%
IC50 (NCI-H2452): 35.5 µM
IC50 (NCI-H3122 cells, 96 h): 5.73 µM
IC50 (NCI-N87, 96 h): 0.95 µM
IC50 (NK-92MI): 1.2 µM
IC50 (NOZ): 1.19 µM
IC50 (NUGC-3 cells, 96 h): 0.25 µM
IC50 (NUGC-4 cells, 96 h): 3.65 µM
IC50 (OCI-AML3): 2.34 µM
IC50 (OCI-LY7 cells, 96 h): 1.81 µM
IC50 (OCUG-1): 16.3 µM
IC50 (OCUM-1 cells, 96 h): 9.94 µM
IC50 (OCUM-2D cells, 96 h): 2.59 µM
IC50 (OCUM-2M cells, 96 h): 3.62 µM
% inhibition at top conc. (OE19, 96 h): 81.07%
IC50 (OE19, 96 h): 19.4 µM
IC50 (OPM2): 0.79 µM
IC50 (OS-RC-2): 3.5 µM
IC50 (OSC-19 cells, 96 h): 8.56 µM
IC50 (OVCAR-3 cells, 96 h): 5.11 µM
IC50 (OVCAR-8 cells, 96 h): 3.13 µM
IC50 (OZ): 15 µM
IC50 (PANC-1): 4.61 µM
IC50 (PC-3): 4.66 µM
IC50 (PC-9 cells, 96 h): 1.97 µM
IC50 (PEER): 2.04 µM
IC50 (PL45): 1.76 µM
IC50 (PLC/PRF/5): 8.47 µM
IC50 (Pfeiffer cells, 96 h): 1.99 µM
IC50 (RBE cells, 96 h): 4.14 µM
IC50 (RD-ES): 0.8 µM
IC50 (RKO): 3.08 µM
IC50 (RPMI 8226 cells, 96 h): 4.04 µM
IC50 (RPMI-2650 cells, 96 h): 1.89 µM
IC50 (RS4;11): 0.33 µM
IC50 (RT4 cells, 96 h): 4.2 µM
IC50 (RT112/84): 0.93 µM
IC50 (Raji cells, 96 h): 2.07 µM
IC50 (Ramos cells, 96 h): 0.64 µM
IC50 (Reh): 0.43 µM
IC50 (SCC-4, 96 h): 2.96 µM
IC50 (SCC-9 cells, 96 h): 8.37 µM
IC50 (SCC-15 cells, 96 h): 3.3 µM
IC50 (SCH cells, 96 h): 6.82 µM
IC50 (SF268 cells, 96 h): 1.43 µM
IC50 (SF-126 cells, 96 h): 1.95 µM
IC50 (SF-763): 7.56 µM
IC50 (SH-SY5Y): 0.27 µM
IC50 (SJSA-1): 3.29 µM
IC50 (SK-BR-3): 0.6 µM
IC50 (SK-CO-1 cells, 96 h): 0.21 µM
IC50 (SK-HEP-1 cells, 96 h): 13.2 µM
IC50 (SK-LU-1 cells, 96 h): 1.38 µM
IC50 (SK-MEL-5, 96 h): 3.2 µM
IC50 (SK-MEL-28, 96 h): 5.62 µM
IC50 (SK-MES-1): 2.63 µM
IC50 (SK-N-FI cells, 96 h): 1.34 µM
IC50 (SK-N-SH): 0.36 µM
IC50 (SK-NEP-1 cells, 96 h): 0.6 µM
IC50 (SK-OV-3 cells, 96 h): 2.88 µM
IC50 (SK-UT-1 cells, 96 h): 6.94 µM
IC50 (SNU-1 cells, 96 h): 2.15 µM
IC50 (SNU-5, 96 h): 2.1 µM
IC50 (SNU-81): 3.7 µM
IC50 (SNU-216 cells, 96 h): 6.07 µM
IC50 (SNU-354): 13.8 µM
% inhibition at top conc. (SNU-368): 81.47%
IC50 (SNU-368): 20.2 µM
IC50 (SNU-387): 43.4 µM
IC50 (SNU-398): 4.9 µM
IC50 (SNU-423 cells, 96 h): 6.06 µM
IC50 (SNU-449): 3.52 µM
IC50 (SNU-475 cells, 96 h): 0.52 µM
IC50 (SNU-484 cells, 96 h): 4.96 µM
IC50 (SNU-601 cells, 96 h): 0.6 µM
IC50 (SNU-620 cells, 96 h): 7.03 µM
IC50 (SNU-638 cells, 96 h): 4.48 µM
IC50 (SNU-668 cells, 96 h): 4.96 µM
IC50 (SNU-719 cells, 96 h): 13.3 µM
IC50 (SNU-739): 0.81 µM
IC50 (SNU-761 cells, 96 h): 1.39 µM
IC50 (SNU-2535 cells, 96 h): 16.3 µM
IC50 (SNU-C2A): 1.77 µM
IC50 (SNU-C5 cells, 96 h): 2.36 µM
IC50 (ST486 cells, 96 h): 0.26 µM
IC50 (SU-DHL-1): 0.28 µM
IC50 (SU-DHL-4): 0.34 µM
IC50 (SU-DHL-5 cells, 96 h): 0.5 µM
IC50 (SU-DHL-6 cells, 96 h): 1.85 µM
IC50 (SU-DHL-8): 0.7 µM
IC50 (SUM159PT): 3.15 µM
IC50 (SUP-B15): 1.39 µM
IC50 (SW48 cells, 96 h): 1.27 µM
IC50 (SW 156 cells, 96 h): 1.03 µM
IC50 (SW480): 1.82 µM
IC50 (SW579 cells, 96 h): 1.41 µM
IC50 (SW626 cells, 96 h): 3.97 µM
IC50 (SW684 cells, 96 h): 33.4 µM
% inhibition at top conc. (SW756 cells, 96 h): 84.79%
IC50 (SW780 cells, 96 h): 1.98 µM
IC50 (SW837 cells, 96 h): 4.21 µM
IC50 (SW948 cells, 96 h): 17.8 µM
IC50 (SW1116 cells, 96 h): 7.94 µM
% inhibition at top conc. (SW1271): 85.04%
IC50 (SW1271): 17.1 µM
IC50 (SW1417 cells, 96 h): 6.91 µM
IC50 (SW1990): 0.85 µM
IC50 (SW-13): 1.38 µM
IC50 (SiHa cells, 96 h): 10.5 µM
IC50 (T24 cells, 96 h): 1.04 µM
IC50 (T47D): 5.25 µM
IC50 (T84): 3.17 µM
IC50 (TF-1): 5.11 µM
IC50 (TJ905 cells, 96 h): 9.46 µM
IC50 (TT cells, 96 h): 28.1 µM
IC50 (Toledo cells, 96 h): 0.49 µM
IC50 (U251 cells, 96 h): 3.52 µM
IC50 (U266B1): 4.53 µM
IC50 (U-87 MG cells, 96 h): 4.05 µM
IC50 (U-2932 cells, 96 h): 0.79 µM
IC50 (UACC-812 cells, 96 h): 4.61 µM
IC50 (UO.31 cells, 96 h): 4.4 µM
IC50 (WM-266-4 cells, 96 h): 3.12 µM
IC50 (WSU-DLCL2 cells, 96 h): 1.37 µM
IC50 (WSU-NHL cells, 96 h): 0.23 µM
IC50 (Y-79 cells, 96 h): 4.56 µM
IC50 (YCC-1 cells, 96 h): 6.62 µM
IC50 (YCC-2 cells, 96 h): 0.72 µM
IC50 (YCC-6 cells, 96 h): 2.62 µM
IC50 (YCC-10, 96 h): 0.69 µM
IC50 (YCC-11 cells, 96 h): 0.62 µM
IC50 (Z-138): 1.02 µM
IC50 (ZR-75-1): 5.73 µM
IC50 (ZR-75-30, 96 h): 2.99 µM
